From patent publication US12678507B2, “Protein tyrosine kinase 6 (PTK6) degradation / disruption compounds and methods of use” (Icahn School of Medicine at Mount Sinai, priority 2018, dated 2026)

Molecular target: T1, PTK6 (Homo sapiens, UniProt Q13882)
T1 construct: endogenous in cells; host or cells: MDA-MB231 cells (ATCC)
Assay: Western blot of PTK6 protein levels in MDA-MB231 cells
Assay type: cell-based
Settings: MDA-231 (MDA-MB231) cells, 500 nM, 24 hours, Western blot (FIGS. 3-5)
Method: FIGS. 2-5. Effects of exemplary compounds on reducing PTK6 protein levels in breast cancer cells. Triple negative MDA-MB231 cells were treated for 24 hours with 500 nM, 2 uM or 2.5 uM of test compound and lysed. Proteins were resolved by SDS/PAGE and immunoblotted with antibody to PTK6 (Santa Cruz, Cell Signaling) or GAPDH loading control (Cell Signaling).
FIG. 13. PTK6 degraders suppress PTK6 expression. MDA-MB231 cells were treated with compounds (500 nM or 1 uM) for 24 hours in monolayer cultures. Cells were lysed and lysates were probed with anti-PTK6 antibody.
MDA-MB231 cells were treated with DMSO or indicated compounds at 2.5 uM, 2 uM or 500 nM for 24 hours.
MDA-MB231 cells were treated with compounds (500 nM or 1 uM) for 24 hours in monolayer cultures. Cells were lysed and lysates were probed with anti-PTK6 antibody.
Cells were lysed in 1% NP-40 lysis buffer containing NaF, Na3VO4, Leupeptin, PMSF, aprotinin, and phosphatase inhibitor (PhosSTOP, Roche) as described previously (Irie et al., 2010). Cleared cell lysates were stored at −80° C. and were analyzed by western analysis as described previously (Irie et al., 2010).

T1 sequence (Q13882 whole entry): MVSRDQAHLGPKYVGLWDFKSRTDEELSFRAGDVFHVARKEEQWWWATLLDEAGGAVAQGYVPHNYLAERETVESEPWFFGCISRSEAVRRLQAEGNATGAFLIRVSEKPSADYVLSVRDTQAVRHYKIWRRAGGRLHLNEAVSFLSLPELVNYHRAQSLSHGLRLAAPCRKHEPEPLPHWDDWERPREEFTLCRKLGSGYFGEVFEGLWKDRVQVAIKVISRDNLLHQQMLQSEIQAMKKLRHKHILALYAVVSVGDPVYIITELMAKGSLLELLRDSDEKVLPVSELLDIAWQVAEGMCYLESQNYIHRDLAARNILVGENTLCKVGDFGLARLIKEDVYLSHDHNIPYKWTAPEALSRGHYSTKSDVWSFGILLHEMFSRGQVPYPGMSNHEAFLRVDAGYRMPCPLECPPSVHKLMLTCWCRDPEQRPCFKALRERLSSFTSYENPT

SMILES	reducing PTK6 protein levels / suppress PTK6 expression
Cc1ncsc1-c1ccc(CNC(=O)[C@@H]2C[C@@H](O)CN2C(=O)[C@@H](NC(=O)CCCCNC(=O)CN2CCN(C(=O)c3ccc(Nc4nc(C5CC5)cn5c(-c6cn[nH]c6)cnc45)c(F)c3)CC2)C(C)(C)C)cc1 [YX39-101, (2S,4R)-1-((S)-2-(5-(2-(4-(4-((6-cyclopropyl-3-(1H-pyrazol-4-yl)imidazo[1,2-a]pyrazin-8-yl)amino)-3-fluorobenzoyl)piperazin-1-yl)acetamido)pentanamido)-3,3-dimethylbutanoyl)-4-hydroxy-N-(4-(4-methylthiazol-5-yl)benzyl)pyrrolidine-2-carboxamide]	effective in reducing PTK6 protein levels
Cc1ncsc1-c1ccc(CNC(=O)[C@@H]2C[C@@H](O)CN2C(=O)[C@@H](NC(=O)CCCCCNC(=O)CN2CCN(C(=O)c3ccc(Nc4nc(C5CC5)cn5c(-c6cn[nH]c6)cnc45)c(F)c3)CC2)C(C)(C)C)cc1 [YX39-102, (2S,4R)-1-((S)-2-(6-(2-(4-(4-((6-cyclopropyl-3-(1H-pyrazol-4-yl)imidazo[1,2-a]pyrazin-8-yl)amino)-3-fluorobenzoyl)piperazin-1-yl)acetamido)hexanamido)-3,3-dimethylbutanoyl)-4-hydroxy-N-(4-(4-methylthiazol-5-yl)benzyl)pyrrolidine-2-carboxamide]	effective in reducing PTK6 protein levels
Cc1ncsc1-c1ccc(CNC(=O)[C@@H]2C[C@@H](O)CN2C(=O)[C@@H](NC(=O)CCCCCCCNC(=O)CN2CCN(C(=O)c3ccc(Nc4nc(C5CC5)cn5c(-c6cn[nH]c6)cnc45)c(F)c3)CC2)C(C)(C)C)cc1 [YX39-104, (2S,4R)-1-((S)-2-(8-(2-(4-(4-((6-cyclopropyl-3-(1H-pyrazol-4-yl)imidazo[1,2-a]pyrazin-8-yl)amino)-3-fluorobenzoyl)piperazin-1-yl)acetamido)octanamido)-3,3-dimethylbutanoyl)-4-hydroxy-N-(4-(4-methylthiazol-5-yl)benzyl)pyrrolidine-2-carboxamide]	effective in reducing PTK6 protein levels
Cc1ncsc1-c1ccc(CNC(=O)[C@@H]2C[C@@H](O)CN2C(=O)[C@@H](NC(=O)CCCCCCCCCNC(=O)CN2CCN(C(=O)c3ccc(Nc4nc(C5CC5)cn5c(-c6cn[nH]c6)cnc45)c(F)c3)CC2)C(C)(C)C)cc1 [YX39-106, (2S,4R)-1-((S)-2-(10-(2-(4-(4-((6-cyclopropyl-3-(1H-pyrazol-4-yl)imidazo[1,2-a]pyrazin-8-yl)amino)-3-fluorobenzoyl)piperazin-1-yl)acetamido)decanamido)-3,3-dimethylbutanoyl)-4-hydroxy-N-(4-(4-methylthiazol-5-yl)benzyl)pyrrolidine-2-carboxamide]	effective in reducing PTK6 protein levels
Cc1ncsc1-c1ccc(CNC(=O)[C@@H]2C[C@@H](O)CN2C(=O)[C@@H](NC(=O)CCCCCCCCCCNC(=O)CN2CCN(C(=O)c3ccc(Nc4nc(C5CC5)cn5c(-c6cn[nH]c6)cnc45)c(F)c3)CC2)C(C)(C)C)cc1 [YX39-107, (2S,4R)-1-((S)-2-(11-(2-(4-(4-((6-cyclopropyl-3-(1H-pyrazol-4-yl)imidazo[1,2-a]pyrazin-8-yl)amino)-3-fluorobenzoyl)piperazin-1-yl)acetamido)undecanamido)-3,3-dimethylbutanoyl)-4-hydroxy-N-(4-(4-methylthiazol-5-yl)benzyl)pyrrolidine-2-carboxamide]	effective in reducing PTK6 protein levels
